{"source": "patent US10238641B2", "about": "“Materials and methods for diagnosis, prevention and/or treatment of stress disorders and conditions associated with A-beta peptide aggregation” (The United States of America as represented by the …, priority 2008, dated 2019)", "key": {"[1]": {"test_system": "rat cortical cells exposed to Aβ", "assay": "Aβ toxicity assay, double calcein-AM and PI staining", "format": "cell-based", "details": "5 μM Aβ + 10 μM cotinine, 24 h; Aβ alone 63%", "experimental": "Primary cortical embryonic rat neurons were incubated with 5 μM Aβ in the presence or absence of various concentrations cotinine for […] as described (Echeverria et al. (2005)). Cell viability was assessed using the MTT assay (Sigma). As an alternative approach cell viability after exposure to Aβ and cotinine was assessed using the vital dye calcein-AM (green fluorescence) to stain live cells and propidium iodide to stain dead cells. MTT values were normalized to control values considered 100%.\nIn the double calcein-AM and Propidium iodide (PI) staining, PI binds to nucleic acid and is commonly used for identifying dead cells, since it is impermeable to the membranes of viable cells. Calcein-AM is converted to calcein by live cells, binds to the cellular calcium, and stains the cells by emitting a green fluorescence. […] After incubation cells were washed with PBS and the number of calcein-stained (green) and nuclei stained with PI (red) were analyzed by fluorescence microscopy. More than 600 cells per condition were analyzed in several 20× focal planes and recorded.\nTo investigate the effect of cotinine on Aβ neurotoxicity, rat cortical cells were grown in conditions that permitted us to obtain a neuron-enriched culture (around 95% neuron and 5% glial cells) for 7-10 days. […] After 24 h, cell survival was assessed by using MTT and PI and calcein-AM cell viability assays."}, "[2]": {"test_system": "phospho-CREB (Serine 133)", "assay": "BDNF-stimulated phosphorylation of CREB after Aβ exposure, Western blot", "format": "cell-based, rat", "details": "5 μM Aβ1-42 + 10 μM cotinine 5 h, then BDNF 1 h", "experimental": "Western blot analysis of the BDNF-stimulated phosphorylation of CREB in extracts of cortical cells. Cells were exposed to vehicle, 5 μM Aβ alone or 5 μM Aβ plus 10 μM cotinine for 5 hours, then to BDNF (50 ng/ml) for 1 hour and analyzed for CREB by western blot (FIG. 6B). The histogram (FIG. 6A) represents the levels of phospho-CREB (Ser133) normalized against β-Tubulin used as a control of protein loading. The values represent significant (*) difference with P<0.05.\nRat embryonic cortical cells were cultured in 24-well plates (0.3×10^6 cells/well) for 7 days, washed with PBS, collected and disrupted by sonication in ice-cold cell lysis buffer containing (20 mM Tris (pH 7.4), 150 mM NaCl, 1 mM ethylenediaminetetraacetic acid (EDTA), 1 mM egtazic acid (EGTA), 1% triton, 2.5 mM Na pyrophosphate, 1 mM β-glycerophosphate, 1 mM Na orthovanadate, 1 μg/ml leupeptin) (Cell Signaling Technology, Beverly, Mass., USA), 1 mM phenylmethylsulfonyl fluoride (PMSF) (Sigma) complete protease inhibitor cocktail (Roche Molecular Biochemicals, Indianapolis, Ind., USA). […] Protein concentration of supernatants was measured by Bio-Rad protein assay (Bio-Rad, Hercules, Calif., USA), and equal amounts of protein were separated by gradient (4-20%) SDS-PAGE and transferred to nitrocellulose membranes (BA83 0.2 μm; Bio-Rad). […]"}, "[3]": {"test_system": "JNK1/2 phosphorylated (pJNK) at Thr183 and Thr185", "assay": "BDNF-induced pJNK in primary cortical neurons, Western blot", "format": "cell-based", "details": "BDNF 100 ng/ml plus cotinine 10 μM, 1 h", "experimental": "After 7 days in vitro, cortical neurons were treated with BDNF (100 ng/ml) alone or BDNF plus cotinine (10 μM) for 1 h. After treatments, cells were lysed and whole cell extracts were analyzed for the active forms of JNK and ERKs, pJNK and pERK1/2 by Western blot."}, "[4]": {"test_system": "ERK1/2", "assay": "BDNF-stimulated pERK1/2 in primary cortical neurons, Western blot", "format": "cell-based", "details": "BDNF 100 ng/ml plus cotinine 10 μM, 1 h"}, "[5]": {"test_system": "sensorimotor abilities in mice", "assay": "Rotarod test", "format": "in vivo", "details": "two weeks of cotinine 1 mg/kg and 5 mg/kg", "experimental": "At the end of the behavioral testing for FC, mice treated for two weeks with vehicle, cotinine 1 mg/kg and 5 mg/kg were tested in the rotarod as follows. The rotarod test was performed in an apparatus consisting of a 3 cm in diameter rod that was started at 4 rpm, accelerating up to 40 rpm for 5 min. Mice were tested for the time spent on the rod during each trial for a total of four trails per day. Testing during each trial was finished when the mouse fell off the rod and onto a spring-cushioned lever. The results are expressed as latency to fall in seconds (time spent on the rod) with 8 mice/group/treatment.\nTo discard a confounding effect of cotinine on learning due to changes in motor coordination and fatigue, we tested mice in the rotarod test after 2 weeks of treatment with vehicle or cotinine at the doses indicated in the figure below."}, "[6]": {"test_system": "sensorimotor abilities in mice", "assay": "Open field activity test", "format": "in vivo", "details": "data not shown"}, "[7]": {"test_system": "transgenic Tg6799 mice", "assay": "Circular platform test of reference memory", "format": "in vivo", "details": "cotinine 2.5 mg/kg via gavage for two months", "experimental": "Mice of 2.5 months of age were treated or not with cotinine 2.5 mg/kg via gavage for two months and after tested in the circular platform test. In this test the number of errors to escape a 69 cm diameter circular platform containing 16 holes along its perimeter was determined in a single daily trial (300 s maximum) over 8 days of testing. Only one hole leads to an escape box, which remains the same for any given animal. To control for olfactory cures, the escape hole was relocated after each animal's trial and the maze cleaned with a dilute vinegar solution. Tg, transgenic Tg6799 mice, NT, control wild type littermate mice. N=11 mice by group."}, "[8]": {"details": "in vivo; cited from earlier work"}}, "data": [{"smiles": "CN1C(=O)CC[C@H]1c1cccnc1", "note": "[cotinine]", "values": [{"measurement": "cell survival, % of vehicle-treated control cells (PI and calcein-AM)", "setting": "[1]", "value": 83, "unit": "%"}, {"measurement": "increase of phosphoCREB versus cells treated with BDNF plus Aβ1-42", "setting": "[2]", "value": 34, "unit": "%"}, {"measurement": "phosphoCREB level relative to control cells", "setting": "[2]", "value": "indistinguishable from the control cell values"}, {"measurement": "levels of active JNK1/2 (pJNK) induced by BDNF", "setting": "[3]", "value": "decreased the levels of the active forms of JNK1/2"}, {"measurement": "BDNF-stimulated phosphorylation of ERK", "setting": "[4]", "value": "did not affect the BDNF-stimulated phosphorylation of ERK"}, {"measurement": "sensorimotor abilities, latency to fall (rotarod)", "setting": "[5]", "value": "did not affect sensorimotor abilities"}, {"measurement": "sensorimotor abilities (open field activity test)", "setting": "[6]", "value": "no changes in sensorimotor abilities were detected"}, {"measurement": "reference memory in the circular platform", "setting": "[7]", "value": "prevents the loss of reference memory"}, {"measurement": "half-life", "setting": "[8]", "value": "10 to 24", "unit": "h"}]}]}
